Earlier results as cited in US20240180821A1, “ORALLY DISINTEGRATING FILM COMPOSITION OF KETOROLAC AND A METHOD OF PREPARATION THEREOF” (LN LABORATORIES PVT LTD, priority 2021, published 2024).

- pKa: 3.5
Compound: O=C(c1ccccc1)c1ccc2n1CCC2C(=O)O (racemic) [Ketorolac tromethamine, (±)-5-Benzoyl-2,3-dihydro-1H-pyrrolizine-1-carboxylic acid, compound with 2-amino-2-(hydroxymethyl)-1,3-propanediol]
